Measured values from patent US8173618B2, “Formulations for reducing neuronal degeneration” (University of Massachusetts, priority 2003, dated 2012).
Where “and” joins values, the source holds several entries; their conditions need not be identical. Equal values may be shown once.

Assays:
SH-SY-5Y cells = test: HPLC of homocysteine in SH-SY-5Y cell lysates and medium; format: cell-based, human
Procedure: Glutathione levels were quantified in homogenates of SH-SY-5Y cells. Cultures were rinsed twice with Tris-buffered saline (TBS), scraped from the plate in a small volume of TBS and homogenized on ice. Medium was also utilized for analysis of HCY along with cellular lysates, since HCY is normally exported from cells. Homogenates (100 μl) were reduced by mixing with 50 μl of 100 μM N-acetylcysteine or with 30 μl of 30 μM cystamine (as an internal standard) and 10 μl of tri-carboxyethylphosphine (100 mg/ml in 0.05 M HCl). Samples were vortexed, incubated at room temperature for 30 minutes, then centrifuged at 10,000×g for 10 minutes. 80 μl of the resulting supernatant were combined with 160 μl of 2 M boric acid/4 mM EDTA (pH 10.5), followed by 80 μl of 1.0 mg/ml SBDF [7-fluorobenzo-2-oxa-1,3-diazole-4-sulfonate] in boric acid/EDTA buffer). Samples were mixed, incubated for 60 minutes at 60° C., equilibrated to reach temperature, and 50 μl of the sample was then injected into a Hewlett Packard model 1090 HPLC, which is used with a 1046A fluorescence detector and a Hewlett Packard 4.6×60 mm high-speed analytical column packed with 3 μM ODs (C18) Hypersil silica. The mobile phase consisted of methanol/0.2 M acetate buffer pH 4.0 (2/98 by volume). Glutathione concentrations were then determined by comparison of peak area ratios of glutathione to the internal standard N-acetylcysteine in the sample compared to peak areas obtained for a glutathione standard curve. Samples were derived from 3-4 normal and 3-4 ApoE−/− mice for each dietary condition, from ≧2 independent experiments (total n≧6 for each diet for both experiments).
Medium was then decanted, cells were scraped from the plate and homogenized, and medium and cellular lysates, along with an aliquot of fresh medium that had not been in contact with cells, were subjected to HPLC analyses.

[1] = tested on: differentiated SH-SY-5Y cells; test: Intracellular ROS by DCFD fluorescence in differentiated SH-SY-5Y cells; format: cell-based, human
Procedure: Cultured cells were used to test individual agents and formulations. In general, SH-SY-5Y human neuroblastoma cells were cultured in DMEM (Cellgro) containing 10% fetal bovine serum in 5% CO2.
For treatments with Abeta, differentiated cultures were transferred to medium without serum and treated for two hours with 20 μM Abeta25-35 (Sigma Chemical Co., St. Louis, Mo.). […] Louis, Mo.). In experiments calling for treatment of cell cultures with N-acetyl cysteine (NAC; NALC), cultures were treated with 10 mM NAC (Sigma Chemical Co., St. Louis, Mo.) after the culture was grown for two hours in serum-free medium.
Intracellular reactive oxygen species (ROS) were monitored as described in Ekinci et al., 1999 (J. Biol. Chem., 274:30322-30327). Briefly, cells were incubated for 30 minutes with dichloro-fluorescein diacetate (DCFD; acetoxymethyl ester; Molecular Probes, Inc., Eugene, Oreg.), which is used to detect intracellular peroxide levels. Incubation was followed by rinsing of cultures in serum-free medium and immediate capture of images using UV optics. Images were captured under epifluorescent and phase-contrast illumination using a DAGE CCL-72 cooled CCD camera via a Scion LG-3 frame grabber operated by NIH Image (see the Internet at rsb.info.nih.gov/nih-image). Images were then stored as PICT files on a Macintosh Power PC 7100AV for subsequent analysis. At least 100 cells in randomly-selected fields from duplicate cultures derived from multiple experiments were scored for fluorescent intensity using NIH Image analysis software. Representative background areas devoid of cells were similarly analyzed and subtracted from cell values to yield net densitometric values. All fields for each individual assay were illuminated, captured, and processed under identical settings. Corresponding phase-contrast images were obtained. Cell aggregates were excluded from the assays; only individual cells were quantified. Values were exported to Excel for statistical analyses using Student's t test.
For monitoring of intracellular peroxide concentrations as an index of ROS, cultures received 10 μl/ml DFCD (2′7′-dichlorofluorescein diacetate; Kodak) for 20 minutes. Cultures were then visualized under fluorescein UV optics (perikaryon; Ekinci and Shea, 1999, supra).

[2] = tested on: differentiated SH-SY-5Y cells; test: Externalized phosphatidylserine (meracyanine fluorescence) as index of apoptosis in SH-SY-5Y cells; format: cell-based, human
Procedure: Levels of externalized phosphatidylserine (PS) were used as a measure of apoptosis (Rimon et al., 1997, J. Neurosci. Res., 48:563-570). Briefly, cultures were subjected to treatments then rinsed with PBS and incubated with 10 μl/ml merocyanine (Upstate Biotech, Lake Placid, N.Y.), followed by examination under rhodamine optics (Ekinci et al, 1999, J. Biol. Chem., 274:30322-30327).
The question of whether folate deficiency is associated with apoptosis was investigated. […] Overall detachment, a further sign of cell death, was evident by the seventh day in the serum-deprived cultures. The detachment phenomenon precluded longer experiments.
The effect of ALCAR on differentiated SH-SY-5Y cells treated with Abeta was examined. Cells were cultured in 20 μM Abeta in the presence and absence of ALCAR. Some cultures were pretreated with 50 μM ALCAR for 30 minutes. In these experiments, the ALCAR-containing medium was replaced with medium containing Abeta and no ALCAR then incubated for two hours before being assayed. Cultures were assayed for ROS, apoptosis, and ATP.

[3] = Snowdon et al., 2000; cited from earlier work

In the case of `Nc1nc2ncc(CNc3ccc(C(=O)N[C@@H](CCC(=O)O)C(=O)O)cc3)nc2c(=O)[nH]1` [folate, folic acid], the “homocysteine levels within cell lysates” value (SH-SY-5Y cells; both before and after folate deprivation) is reported as under 1 nM, the “homocysteine levels in medium” value (SH-SY-5Y cells; cells cultured two hours in the absence of folate) is reported as “approximately 300 nM” and the “homocysteine levels in medium” value (SH-SY-5Y cells; cells cultured two hours in the presence of folate) is reported as “about 30 nM”. The “Abeta-induced increase in ROS” value ([1]; 5×folate (20 mg/l), 20 μM Abeta two hours) was “prevented”, the “ROS in otherwise untreated cells” value ([1]; 10×folate compared to 1-5×folate) was “marginal decrease in ROS” and the “ROS Mean ± SEM” value ([1]; folate (control), two hours) was 7.6 ± 0.3. The “increase in ROS” value ([1]; folate deprivation, compared to cells cultured in the presence of folate (Example 6)) was 64±5%, the “ROS Mean ± SEM” value ([1]; no folate, two hours) was 10.5 ± 0.5 and the “ROS % increase vs. control” value ([1]; no folate, two hours, vs cultures receiving folate) was 38±4% and 38%. The ROS ([1]; single agent, control cells and cells exposed to Abeta, two hours) was “reduced ROS”, the “meracyanine fluorescence (externalized PS) Mean ± SEM” value ([2]; +folate, Day 1, without serum) was 34.0 ± 1.2 arbitrary fluorescent units and the “meracyanine fluorescence (externalized PS) Mean ± SEM” value ([2]; +folate, Day 3, without serum) was 40.9 ± 2.0 arbitrary fluorescent units. For the same compound, the “meracyanine fluorescence (externalized PS) Mean ± SEM” value ([2]; +folate, Day 5, without serum) was 63.7 ± 3.6 arbitrary fluorescent units, the “meracyanine fluorescence (externalized PS) Mean ± SEM” value ([2]; −folate, Day 1, without serum) was 31.2 ± 1.4 arbitrary fluorescent units and the “meracyanine fluorescence (externalized PS) Mean ± SEM” value ([2]; −folate, Day 3, without serum) was 44.1 ± 4.1 arbitrary fluorescent units. For the same compound, the “meracyanine fluorescence (externalized PS) Mean ± SEM” value ([2]; −folate, Day 5, without serum) was 112.7 ± 5.7 arbitrary fluorescent units and the “concentration in spinal fluid versus plasma” value [3] was “concentrated four-fold within spinal fluid over that observed within plasma”.
